Patent US10336774B2, “N-azaspirocycloalkane substituted N-heteroaryl compounds and compositions for inhibiting the activity of SHP2” (NOVARTIS AG, priority 2014, dated 2019)

Target: SHP2 (Homo sapiens (Human), UniProt Q06124)
Test: SHP2 Allosteric Inhibition Assay
Type: biochemical
Text: SHP2 Allosteric Inhibition Assay SHP2 is allosterically activated through binding of bis-tyrosyl-phorphorylated peptides to its Src Homology 2 (SH2) domains. The latter activation step leads to the release of the auto-inhibitory interface of SHP2, which in turn renders the SHP2 protein tyrosine phosphatase (PTP) active and available for substrate recognition and reaction catalysis. The catalytic activity of SHP2 was monitored using the surrogate substrate DiFMUP in a prompt fluorescence assay format. […] After 30-60 minutes incubation at 25° C., the surrogate substrate DiFMUP (Invitrogen, cat# D6567) was added to the reaction and incubated at 25° C. for 30 minutes. […] The inhibitor dose response curves were analyzed using normalized IC50 regression curve fitting with control based normalization.

[1] = 0.5 nM SHP2 activated with 0.5 μM peptide IRS1_pY1172(dPEG8)pY1222, surrogate substrate DiFMUP, fluorescence

SHP2, sequence (Q06124 whole entry): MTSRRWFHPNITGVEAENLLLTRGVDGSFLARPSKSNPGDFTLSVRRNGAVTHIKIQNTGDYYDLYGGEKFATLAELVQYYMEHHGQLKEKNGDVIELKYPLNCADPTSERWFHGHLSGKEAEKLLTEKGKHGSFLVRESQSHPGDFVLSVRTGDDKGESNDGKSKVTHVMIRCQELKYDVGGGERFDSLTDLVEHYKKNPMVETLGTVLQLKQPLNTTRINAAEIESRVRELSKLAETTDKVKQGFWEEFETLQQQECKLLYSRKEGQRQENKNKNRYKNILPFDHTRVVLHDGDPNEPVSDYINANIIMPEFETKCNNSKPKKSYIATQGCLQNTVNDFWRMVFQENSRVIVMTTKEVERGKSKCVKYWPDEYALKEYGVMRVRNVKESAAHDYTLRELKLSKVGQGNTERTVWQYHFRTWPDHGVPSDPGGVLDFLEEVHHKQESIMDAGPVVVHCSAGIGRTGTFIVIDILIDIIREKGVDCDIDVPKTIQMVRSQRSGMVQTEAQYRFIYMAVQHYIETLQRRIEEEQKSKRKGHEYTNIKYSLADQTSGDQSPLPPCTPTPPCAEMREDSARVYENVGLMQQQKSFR

SMILES | IC50 [1] | IC50 (unit given as M, TFA salt before chiral separation)
Nc1nc(N2CCC3(CC2)C[C@H](O)C[C@H]3N)cnc1Sc1ccnc(Cl)c1Cl [Example 57] | 3 nM | 
Nc1nc(N2CCC3(CC2)C[C@@H](O)C[C@H]3N)cnc1Sc1ccnc(Cl)c1Cl [Example 58] | 4 nM | 
CO[C@H]1C[C@@H](N)C2(CCN(c3cnc(Sc4ccnc(N)c4Cl)c(N)n3)CC2)C1 [Example 59] | 10 nM | 
CO[C@H]1C[C@@H](N)C2(CCN(c3cnc(Sc4ccnc(Cl)c4Cl)c(N)n3)CC2)C1 [Example 60] | 4 nM | 
C[C@@H]1C[C@@H](N)C2(CCN(c3cnc(Sc4cccnc4C(F)(F)F)c(N)n3)CC2)C1 [Example 61] | 7 nM | 
C[C@@H]1C[C@H](N)C2(CCN(c3cnc(Sc4cccnc4C(F)(F)F)c(N)n3)CC2)C1 [Example 62] | 100 nM | 
Nc1nc(N2CCC3(CC2)COC[C@H]3N)cnc1Sc1ccnc(Cl)c1Cl [Example 63] | 7 nM | 
Nc1nc(N2CCC3(CC2)COC[C@H]3N)cnc1Sc1ccnc(F)c1Cl [Example 64] | 13 nM | 
Nc1nc(N2CCC3(CCC[C@H]3N)CC2)cnc1Sc1cc(F)ncc1Cl [Example 65] | 310 nM | 
CC(C)C(=O)O[C@@H]1C[C@@H](N)C2(CCN(c3cnc(Sc4ccnc(Cl)c4Cl)c(N)n3)CC2)C1 [Example 66] | 65 nM | 
Nc1nc(N2CCC3(CC2)CC(F)(F)C[C@H]3N)cnc1Sc1ccnc(N)c1Cl [Example 67] | 10 nM | 
C[C@H]1C[C@@H](N)C2(CCN(c3cnc(Sc4ccnc(N)c4Cl)c(N)n3)CC2)C1 [Example 70, (1R,3R)-8-(6-amino-5-((2-amino-3-chloropyridin-4-yl)thio)pyrazin-2-yl)-3-methyl-8-azaspiro[4.5]decan-1-amine] | 5 nM | 
C[C@@H]1C[C@@H](N)C2(CCN(c3cnc(Sc4ccnc(N)c4Cl)c(N)n3)CC2)C1 [Example 71, (1R,3S)-8-(6-amino-5-((2-amino-3-chloropyridin-4-yl)thio)pyrazin-2-yl)-3-methyl-8-azaspiro[4.5]decan-1-amine] | 5 nM | 
NC1=NCC2(CCN(c3cnc(Sc4cccnc4C(F)(F)F)c(N)n3)CC2)O1 [Example 72, 8-(6-amino-5-((2-(trifluoromethyl)pyridin-3-yl)thio)pyrazin-2-yl)-1-oxa-3,8-diazaspiro[4.5]dec-2-en-2-amine] | 193 nM | 
NC1=NC2(CCN(c3cnc(Sc4ccnc(Cl)c4Cl)c(N)n3)CC2)CO1 [Example 73] | 20 nM | 
NC1=NC2(CCN(c3cnc(Sc4cccnc4C(F)(F)F)c(N)n3)CC2)CO1 [Example 74] | 56 nM | 
CN(C)c1nccc(Sc2ncc(N3CCC4(CCC[C@H]4N)CC3)nc2N)c1Cl [Example 75, (R)-8-(6-amino-5-((3-chloro-2-(dimethylamino)pyridin-4-yl)thio)pyrazin-2-yl)-8-azaspiro[4.5]decan-1-amine] | 10 nM | 
Nc1nc(N2CCC3(CCC[C@H]3N)CC2)cnc1Sc1ccnnc1Cl [Example 76] | 78 nM | 
COc1nccc(Sc2ncc(N3CCC4(CCC[C@H]4N)CC3)nc2N)c1Cl [Example 78] | 15 nM | 
Nc1nc(N2CCC3(CCC[C@H]3N)CC2)cnc1Sc1ccncc1C(F)(F)F [Example 80] | 42 nM | 
Nc1nc(N2CCC3(CCC[C@H]3N)CC2)cnc1Sc1cc[nH]c(=O)c1Cl [Example 81, (R)-4-((3-amino-5-(1-amino-8-azaspiro[4.5]decan-8-yl)pyrazin-2-yl)thio)-3-chloropyridin-2(1H)-one] | 20 nM | 
CC1CCC2(CCN(c3cnc(Sc4cccnc4C(F)(F)F)c(N)n3)CC2)[C@@H]1N (stereo partly drawn) [Example 86a/b, (1R)-8-(6-amino-5-((2-(trifluoromethyl)pyridin-3-yl)thio)pyrazin-2-yl)-2-methyl-8-azaspiro[4.5]decan-1-amine] |  | 1 nM
Nc1cc(Sc2ncc(N3CCC4(CCC[C@H]4N)CC3)nc2N)c(Cl)c(Cl)n1 [Example 87] | 9.3 nM | 
C[C@@H]1OCC2(CCN(c3cnc(Sc4cc(N)nc(Cl)c4Cl)c(N)n3)CC2)[C@@H]1N [Example 88] | 4 nM | 
Nc1cc(Sc2ncc(N3CCC4(CC3)COC[C@H]4N)nc2N)c(Cl)c(Cl)n1 [Example 89] | 11.8 nM | 
Nc1cc(Sc2ncc(N3CCC4(CC3)C[C@H](O)C[C@H]4N)nc2N)c(Cl)c(Cl)n1 [Example 90] | 4 nM | 
Nc1nc(N2CCC3(CC2)C[C@@H](F)C[C@H]3N)cnc1Sc1ccnc(N)c1Cl [Example 91] | 8 nM | 
Nc1nc(N2CCC3(CC2)C[C@H](F)C[C@H]3N)cnc1Sc1ccnc(N)c1Cl [Example 92] | 10 nM | 
